In patent US20250017949A1, “METHODS AND COMPOSITIONS FOR SUPPRESSING AGING-ASSOCIATED CLONAL HEMATOPOIESIS” (The Jackson Laboratory, priority 2021, published 2025):
Entries after “also recorded” stand apart in the source; their conditions may differ.

Columns and labels:
[1] = test system: Dnmt3a^R878H/+ cells; assay: Etanercept transplants (pan-TNFα blockade after competitive secondary transplant); format: in vivo, mouse
Text: FIGS. 7A-7H: TNFR1 is required for Dnmt3a^R878H/+ HSC self-renewal while TNFR2 regulates lymphoid cell production. (FIG. 7A) Schematic of experimental design to test competitive, serial transplant of Mx-Cre control, Dnmt3a^R878H/+(R878H/+), Dnmt3a^R878H/+ Tnfrsf1a^−/− (R878H/+; TNFR1KO) and Dnmt3a^R878H/+ Tnfrsf1b^−/− (R878H/+; TNFR2KO) in aged (>12 mo) recipient mice. (FIG. 7B) Frequency of donor cells in PB (left) and BM (right) of recipient mice at 20 weeks post-secondary transplant. Significance was calculated using Brown-Forsythe and Welch ANOVA with Welch's correction. (FIG. 7C) Representative flow cytometry plots showing B cell and myeloid cell frequencies in donor derived PB. (FIG. 7D) Frequency of B cells (left), T cells (center) and myeloid cells (right) in donor derived PB at 20 weeks post-secondary transplant. Significance was calculated using one-way ANOVA with Tukey's multiple comparisons test. (FIG. 7E) Experimental schematic of transplant experiment with etanercept treatment. (FIG. 7F) Frequency of control or R878H/+ donor cells in PB pre- and post-etanercept treatment. Significance was calculated using two-way ANOVA with Fisher's LSD. (FIG. 7G) Frequency of control or R878H/+ donor cells in BM post-etanercept or vehicle treatment. Significance was calculated using two-way ANOVA with Fisher's LSD. (FIG. 7H) Frequency of HSC, MPP^Mk/E, MPP^G/M, and MPP^Ly populations in control or R878H/+ BM. Significance was calculated using two-way ANOVA with Fisher's LSD. (FIGS. 7B and 7D) Dots represent individual recipient mice, boxes show 25 to 75th percentile, line is median, whiskers show min to max. (FIG. 7F) Dots represent mean across biological replicates (n=4). (FIGS. 7G and 7H) Bars represent mean+/− SEM (n=4). *P<0.05, **P<0.01, ***P<0.001, ****P<0.0001.
TNFα signaling occurs through two distinct TNFα receptors, TNFR1 (Tnfrsf1a) and TNFR2 (Tnfrsf1b). Both TNFR1 and TNFR2 are expressed on HSC and MPP populations and are not altered in surface expression between control and Dnmt3a^R878H/+ mice (data not shown). To determine which of these receptors are responsible for TNFα-mediated selective advantage of Dnmt3a^R878H/+ HSCs and B lymphoid cell production, we crossed Dnmt3a^R878H/+ mice with Tnfrsf1a or Tnfrsf1b knockout mice (data not shown) and tested HSC function by competitive serial BM transplantation into aged recipients (FIG. 7A). […]
1×10^6 BM cells from 2-4-month-old Dnmt3a^+/+ Mx-Cre or Dnmt3a^fl-R878H/+ Mx-Cre donors were competitively transplanted with wild-type CD45.1+ CD45.2+ F1 BM cells in 2-4-month-old CD45.1+ lethally irradiated recipients. […] PB was monitored weekly and at 28 weeks post-transplant, bone marrow was harvested for analysis.

[2] = test system: STAT3; assay: Phosphorylation in HSPCs in response to recombinant OSM stimulation; format: cell-based, mouse; details: recombinant OSM stimulation for 30 minutes; FIG. 10G
Text: (§1) FIGS. 10A-10G: OSM signaling is increased in Dnmt3a-mutant hematopoietic stem cells (HSCs) in an aged bone marrow microenvironment. (FIG. 10A) Experiment design. (FIG. 10B) Volcano plot of differentially expressed genes between Dnmt3a-mutant (R878H) vs. wild-type (+/+) HSCs in young recipients (left panel) and aged recipients (right panel). […] (FIG. 10C) Ingenuity Pathway Analysis prediction of upstream factors that would produce the differential gene expression pattern observed in aged recipients shown in FIG. 10B. (FIG. 10D) Gene set enrichment analysis of OSM signaling signature in Dnmt3a-mutant (R878H) vs. wild-type (+/+) HSCs specifically in aged recipient mice. (FIG. 10E) OSM levels in bone marrow fluid of young, middle-aged and old C57BL/6 wild-type mice assessed by ELISA. (FIG. 10F) Schematic of OSM-OSMR signaling pathway with differentially expressed genes in Dnmt3a-mutant vs. control HSCs colored in green (increased) or orange (decreased). (FIG. 10G) Phosphorylation of Stat3 (left panel) and Stat5 (right panel) in wild-type or Dnmt3a-mutant HSPCs in response to recombinant OSM stimulation for 30 minutes.
(§2) To determine which factor(s) might be elevated in the aged bone marrow microenvironment that would impact Dnmt3a-mutant HSPCs, donor-derived hematopoietic stem cells (HSCs) were re-isolated from the experiment shown in FIG. 9A (design shown in FIG. 10A). […]

[3] = test system: STAT5; assay: as above; format: cell-based, mouse; details: recombinant OSM stimulation for 30 minutes; FIG. 10G
Text: as §1, §2

[4] = test system: Dnmt3a-mutant HSCs vs wild-type HSCs; assay: Mixed HSC culture with or without recombinant OSM, then transplant and engraftment; format: in vivo, mouse; details: then transplant, FIGS. 11B-11C
Text: (FIG. 11A) Experiment design. Contribution of wild-type (WT F1) and competitor Dnmt3a-mutant (R878H/+) cells to peripheral blood (FIG. 11B) and bone marrow (FIG. 11C) of recipient mice after culture with or without recombinant OSM.
Next, to determine if OSM stimulation has a differential functional effect on Dnmt3a-mutant vs. control HSCs, we established mixed cultures of purified control and Dnmt3a-mutant HSCs in culture conditions that promote HSC self-renewal and expansion. To test HSC function, we transplanted cells at the end of the culture period into recipient mice and measured their engraftment capacity (FIG. 11A). We find that in absence of OSM there is similar or equal engraftment of wild-type and Dnmt3a-mutant competitor cells in recipient mice (FIGS. 11B-11C). […] This finding supports that OSM is a major factor causing clonal hematopoiesis.

[5] = test system: Dnmt3a-mutant (D3a) hematopoietic stem and progenitor cells; assay: Myeloid colony formation in media containing MitoQ or vehicle (DMSO); format: cell-based, mouse; details: in vitro, MitoQ vs vehicle (DMSO), FIG. 3
Protocol: (§3) Number of myeloid colonies produced from wild-type MxCre control or Dnmt3a-mutant (D3a) hematopoietic stem and progenitor cells in media containing MitoQ or vehicle (DMSO).
(§4) To evaluate the extent to which targeting defects in mitochondrial metabolism might improve wild-type HSC function and thus reduce the selective advantage of Dnmt3a-mutant HSCs, cells were treated with the mitochondrially targeted antioxidant mitoquinol (MitoQ) in vitro and in vivo. […] Treatment with MitoQ or other methods to improve mitochondrial metabolism are attractive targets to consider in the treatment of clonal hematopoiesis and prevention of leukemia.

[6] = test system: wild-type MxCre control hematopoietic stem and progenitor cells; assay: as above; format: cell-based, mouse; details: in vitro, MitoQ vs vehicle (DMSO); FIG. 3
Protocol: as §3, §4

[7] = test system: Dnmt3a-mutant (D3a) hematopoietic stem cells; assay: In vivo MitoQ treatment after transplant into aged recipient mice; design: species or system mouse; details: in vivo MitoQ vs vehicle (PBS) after transplant into aged recipient mice, FIG. 4
Protocol: Frequency of donor-derived cells produced from wild-type (MxCre) control or Dnmt3a-mutant (D3a) hematopoietic stem cells post-transplantation and in vivo treatment with MitoQ or vehicle (PBS).
as §4

[8] = etanercept 25 mg/kg IP twice per week for four weeks vs vehicle, FIG. 7H

Etanercept was tested, and the “Frequency of R878H/+ donor cells in BM (BM engraftment)” value ([1]; etanercept 25 mg/kg IP twice per week for four weeks vs vehicle, FIG. 7G) was “trended toward reduction in BM engraftment”, the “Frequency of Dnmt3a^R878H/+ HSC, MPP^Mk/E and MPP^Ly populations in BM” value [1, 8] was “reduced the frequency” and the “Frequency of Dnmt3a^R878H/+ myeloid-primed multipotent progenitors MPP^G/M in BM” value [1, 8] was “trend toward increase”. For the same substance, the “Frequency of R878H/+ donor cells in PB (competitive PB advantage)” value ([1]; etanercept 25 mg/kg IP twice per week for four weeks, pre- vs post-treatment, FIG. 7F) was “reduced the competitive PB advantage”.
With “OSM: recombinant pro-inflammatory cytokine Oncostatin M used to stimulate HSCs/HSPCs” the “Phosphorylation of STAT3 in Dnmt3a-mutant vs control HSPCs” value [2] was “greater phosphorylation of STAT3; also recorded: greater downstream Stat3 phosphorylation compared to control HSCs”, the “Phosphorylation of STAT5 in HSPCs” value [3] was “phosphorylation of STAT5 was not seen” and the “Engraftment of Dnmt3a-mutant vs wild-type cells in peripheral blood and bone marrow of recipient mice” value [4] was “favors growth of Dnmt3a-mutant hematopoietic stem cells (HSCs); also recorded: greater multi-lineage engraftment capacity in recipient mice compared to OSM-treated wild-type HSCs”. For the same substance, the “Engraftment of Dnmt3a-mutant vs wild-type cells in peripheral blood and bone marrow of recipient mice” value ([4]; listed as recombinant OSM) was “entirely favors growth of Dnmt3a-mutant HSCs over wild-type cells”.
With mitoquinol the “Number of myeloid colonies / progeny produced from Dnmt3a-mutant cells” value [5] was “reduce number of progeny produced from Dnmt3a-mutant cells; also recorded: decreases myeloid differentiation of hematopoietic stem and progenitor cells in vitro”, the “Number of myeloid colonies / progeny produced from Dnmt3a-mutant cells” value ([5]; listed as MitoQ®) was “reduced myeloid differentiation of Dnmt3a-mutant HSCs” and the “Myeloid differentiation of wild-type control cells” value [6] was “did not impact differentiation of wild-type control cells”. For the same substance, the “Contribution of Dnmt3a-mutant cells to hematopoiesis (frequency of donor-derived cells)” value [7] was “reduced contribution of Dnmt3a-mutant cells to hematopoiesis; also recorded: decreases contribution of Dnmt3a-mutant cells to mature hematopoiesis in vivo” and the “Contribution of Dnmt3a-mutant cells to hematopoiesis (frequency of donor-derived cells)” value ([7]; listed as MitoQ®) was “impaired differentiation and mature cell production from Dnmt3a-mutant HSCs”.
